Reference: ChEMBL document CHEMBL1201862, “PubChem BioAssay data set” (2004)
The source made the active and inactive calls.

Experiments:
T-cell = experiment: inhibitors of CD8+ T cell–vesicle binding, dose response, mouse 2C CD8+ T cells, flow cytometry (AID 485284); format: functional
Streptococcus = experiment: Group A Streptococcus viability loss, dose response, counter-screen for streptokinase expression inhibitor project, luminescence, BacTiterGlo (AID 1915); format: functional, organism-based;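 also: potency for reduction of bacterial viability or growth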
[1] = test system: Streptococcus sp. 'group A'; experiment: growth inhibition of control SK(-) GAS strain, dose response, counter-screen for streptokinase expression inhibitor project, luminescence, kanamycin, BacTiterGlo, confirmation (AID 1900); format: functional, organism-based
Streptokinase A = target: T1, Streptokinase A (Streptococcus pyogenes serotype M1, UniProt P10520); experiment: S. pyogenes streptokinase expression inhibitors, potency, dose response, plasminogen activation absorbance, OD405 (AID 1914); format: functional, Streptococcus pyogenes M1 GAS;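 also: secreted streptokinase activity via plasminogen activation per viability signal from cell pellet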
T1 sequence (P10520 whole entry): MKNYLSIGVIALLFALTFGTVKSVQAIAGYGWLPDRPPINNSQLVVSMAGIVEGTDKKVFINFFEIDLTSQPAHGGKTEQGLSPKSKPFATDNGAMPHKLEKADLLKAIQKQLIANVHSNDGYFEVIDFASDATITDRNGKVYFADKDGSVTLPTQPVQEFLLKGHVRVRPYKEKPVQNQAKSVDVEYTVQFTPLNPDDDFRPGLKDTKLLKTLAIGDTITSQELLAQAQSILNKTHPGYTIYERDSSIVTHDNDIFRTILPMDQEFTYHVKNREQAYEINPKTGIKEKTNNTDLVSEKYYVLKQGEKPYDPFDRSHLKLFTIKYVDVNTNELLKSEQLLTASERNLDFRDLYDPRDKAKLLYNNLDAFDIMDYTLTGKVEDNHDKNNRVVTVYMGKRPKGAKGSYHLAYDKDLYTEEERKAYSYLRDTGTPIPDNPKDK

CAAX prenyl protease 2 = target: T2, CAAX prenyl protease 2 (Saccharomyces cerevisiae S288c, UniProt Q03530); format: biochemical
T2 sequence (Q03530 whole entry): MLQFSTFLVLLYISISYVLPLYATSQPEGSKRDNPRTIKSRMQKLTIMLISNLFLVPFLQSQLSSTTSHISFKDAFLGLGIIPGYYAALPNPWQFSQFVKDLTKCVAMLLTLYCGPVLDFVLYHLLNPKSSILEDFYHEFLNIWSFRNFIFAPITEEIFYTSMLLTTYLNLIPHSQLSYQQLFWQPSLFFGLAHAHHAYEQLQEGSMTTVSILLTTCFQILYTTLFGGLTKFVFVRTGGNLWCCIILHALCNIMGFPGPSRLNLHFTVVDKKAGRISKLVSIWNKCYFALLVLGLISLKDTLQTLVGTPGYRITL

Tumor necrosis factor = Tumor necrosis factor (Homo sapiens, UniProt P01375); experiment: TNFa-triggered NF-kB activation inhibitors, SAR follow-up, cell-based, revised (AID 2337); format: functional
Tumor necrosis factor, sequence (P01375 whole entry): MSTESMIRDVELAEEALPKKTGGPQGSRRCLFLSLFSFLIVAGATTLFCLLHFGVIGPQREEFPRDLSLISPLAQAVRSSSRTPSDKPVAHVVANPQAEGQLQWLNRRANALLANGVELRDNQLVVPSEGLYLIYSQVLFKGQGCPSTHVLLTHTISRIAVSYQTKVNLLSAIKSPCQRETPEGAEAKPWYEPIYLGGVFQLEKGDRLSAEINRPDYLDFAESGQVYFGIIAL

HEK293 [2] = experiment: NOD2 signaling inhibitors in MDP-stimulated cells, cell-based, uHTS, luminescence (AID 2001); format: functional; settings: Homo sapiens
HEK293 [3] = experiment: NOD1 signaling inhibitors, primary screen, cell-based, luminescence, uHTS (AID 1578); format: functional; settings: Homo sapiens
HEK293 [4] = experiment: cells; format: functional, cell-based; settings: Homo sapiens
HEK293 [5] = experiment: cells; settings: Homo sapiens
HEK293 [6] = experiment: cells; format: functional, cell-based; settings: Homo sapiens; remark: listed apart in the source
[7] = target: T3, Nucleotide-binding oligomerization domain-containing protein 1 (Homo sapiens, UniProt Q9Y239); experiment: NOD1 signaling inhibitors, SAR follow-up, revised (AID 2333); format: functional
T3 sequence (Q9Y239 whole entry): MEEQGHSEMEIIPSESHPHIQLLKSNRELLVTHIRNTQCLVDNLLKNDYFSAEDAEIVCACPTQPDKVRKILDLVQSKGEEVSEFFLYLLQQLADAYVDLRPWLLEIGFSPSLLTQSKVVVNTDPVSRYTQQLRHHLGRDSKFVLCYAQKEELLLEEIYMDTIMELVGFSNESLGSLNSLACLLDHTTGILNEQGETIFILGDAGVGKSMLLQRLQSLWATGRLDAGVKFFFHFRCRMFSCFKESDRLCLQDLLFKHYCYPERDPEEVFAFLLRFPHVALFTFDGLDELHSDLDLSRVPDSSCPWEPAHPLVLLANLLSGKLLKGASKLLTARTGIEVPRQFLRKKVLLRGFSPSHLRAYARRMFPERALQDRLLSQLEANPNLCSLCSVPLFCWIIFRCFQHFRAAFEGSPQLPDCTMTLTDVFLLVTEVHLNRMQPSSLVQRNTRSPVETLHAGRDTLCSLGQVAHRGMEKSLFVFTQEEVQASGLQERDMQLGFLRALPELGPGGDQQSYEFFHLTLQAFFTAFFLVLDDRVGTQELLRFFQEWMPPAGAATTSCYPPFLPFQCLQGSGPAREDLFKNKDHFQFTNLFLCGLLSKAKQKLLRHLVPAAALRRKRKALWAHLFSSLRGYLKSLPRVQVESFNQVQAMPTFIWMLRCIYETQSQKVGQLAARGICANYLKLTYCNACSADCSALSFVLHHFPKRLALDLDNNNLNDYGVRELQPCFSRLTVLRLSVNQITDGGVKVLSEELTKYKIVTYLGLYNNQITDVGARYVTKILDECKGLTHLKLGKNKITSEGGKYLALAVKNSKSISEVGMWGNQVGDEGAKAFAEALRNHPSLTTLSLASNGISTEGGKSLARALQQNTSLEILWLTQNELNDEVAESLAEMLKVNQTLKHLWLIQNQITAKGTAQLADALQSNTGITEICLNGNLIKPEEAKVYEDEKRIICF

[8] = target: T4, DNA dC->dU-editing enzyme APOBEC-3G (Homo sapiens, UniProt Q9HC16); format: functional
T4 sequence (Q9HC16 whole entry): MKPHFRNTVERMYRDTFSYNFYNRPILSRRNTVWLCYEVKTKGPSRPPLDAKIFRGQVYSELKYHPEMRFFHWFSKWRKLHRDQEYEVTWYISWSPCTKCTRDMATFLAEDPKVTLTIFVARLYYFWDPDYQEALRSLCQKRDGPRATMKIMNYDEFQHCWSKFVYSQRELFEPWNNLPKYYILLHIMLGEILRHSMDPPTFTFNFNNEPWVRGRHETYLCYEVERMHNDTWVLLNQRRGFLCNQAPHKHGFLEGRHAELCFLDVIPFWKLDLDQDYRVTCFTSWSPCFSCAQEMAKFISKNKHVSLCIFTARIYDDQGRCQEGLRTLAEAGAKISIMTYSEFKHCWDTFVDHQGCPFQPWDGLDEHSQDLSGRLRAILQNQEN

[9] = target: DNA dC->dU-editing enzyme APOBEC-3A (Homo sapiens, UniProt P31941); experiment: Dose Response confirmation of small molecule APOBEC3A DNA Deaminase Inhibitors via a fluorescence-based single-stranded DNA deaminase assay. [Related pubchem assays (depositor defined):AID493011, AID493024]; format: functional
DNA dC->dU-editing enzyme APOBEC-3A, sequence (P31941 whole entry): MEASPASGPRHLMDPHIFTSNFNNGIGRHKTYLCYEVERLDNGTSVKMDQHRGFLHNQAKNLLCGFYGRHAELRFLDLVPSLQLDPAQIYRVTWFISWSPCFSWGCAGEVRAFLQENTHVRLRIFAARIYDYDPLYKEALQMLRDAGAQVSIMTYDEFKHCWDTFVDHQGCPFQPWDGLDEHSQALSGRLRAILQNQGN

Caspase-6 = target: T5, Caspase-6 (Homo sapiens, UniProt P55212); experiment: human caspase-6 inhibitors, dose response, biochemical, VEID-R110 fluorescence, cherry-pick (AID 720632)
T5 sequence (P55212 whole entry): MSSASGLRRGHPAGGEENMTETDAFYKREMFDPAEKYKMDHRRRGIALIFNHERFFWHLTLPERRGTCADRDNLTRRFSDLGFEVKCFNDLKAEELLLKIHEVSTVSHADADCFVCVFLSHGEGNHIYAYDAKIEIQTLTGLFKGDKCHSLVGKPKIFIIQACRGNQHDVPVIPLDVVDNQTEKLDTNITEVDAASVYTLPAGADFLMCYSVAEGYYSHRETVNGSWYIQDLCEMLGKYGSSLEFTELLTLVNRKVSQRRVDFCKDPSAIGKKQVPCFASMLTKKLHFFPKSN

[10] = target: T4, DNA dC->dU-editing enzyme APOBEC-3G; experiment: Dose Response confirmation of small molecule APOBEC3G DNA Deaminase Inhibitors via a fluorescence-based single-stranded DNA deaminase assay. [Related pubchem assays (depositor defined):AID493012, AID493028]; format: functional
[11] = target: Heat shock protein HSP 90-alpha (Homo sapiens, UniProt P07900); format: functional, organism-based
[12] = target: T6, DNA repair protein RAD52 homolog (Homo sapiens, UniProt P43351); format: functional, biochemical
T6 sequence (P43351 whole entry): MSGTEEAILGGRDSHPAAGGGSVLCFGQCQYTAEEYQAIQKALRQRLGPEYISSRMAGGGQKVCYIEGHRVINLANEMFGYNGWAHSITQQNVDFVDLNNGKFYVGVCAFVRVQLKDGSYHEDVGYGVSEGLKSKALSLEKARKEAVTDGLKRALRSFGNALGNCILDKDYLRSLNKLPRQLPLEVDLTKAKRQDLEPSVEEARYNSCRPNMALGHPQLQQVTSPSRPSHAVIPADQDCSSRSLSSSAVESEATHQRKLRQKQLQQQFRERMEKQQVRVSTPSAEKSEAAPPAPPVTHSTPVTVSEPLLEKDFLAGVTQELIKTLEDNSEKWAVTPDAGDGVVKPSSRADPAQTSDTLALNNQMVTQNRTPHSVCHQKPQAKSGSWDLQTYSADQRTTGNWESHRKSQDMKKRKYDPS

[13] = target: Alkaline phosphatase, placental type (Homo sapiens, UniProt P05187); experiment: PLAP enzyme inhibitors, confirmation, biochemical, luminescence (AID 1512); format: functional
Alkaline phosphatase, placental type, sequence (P05187 whole entry): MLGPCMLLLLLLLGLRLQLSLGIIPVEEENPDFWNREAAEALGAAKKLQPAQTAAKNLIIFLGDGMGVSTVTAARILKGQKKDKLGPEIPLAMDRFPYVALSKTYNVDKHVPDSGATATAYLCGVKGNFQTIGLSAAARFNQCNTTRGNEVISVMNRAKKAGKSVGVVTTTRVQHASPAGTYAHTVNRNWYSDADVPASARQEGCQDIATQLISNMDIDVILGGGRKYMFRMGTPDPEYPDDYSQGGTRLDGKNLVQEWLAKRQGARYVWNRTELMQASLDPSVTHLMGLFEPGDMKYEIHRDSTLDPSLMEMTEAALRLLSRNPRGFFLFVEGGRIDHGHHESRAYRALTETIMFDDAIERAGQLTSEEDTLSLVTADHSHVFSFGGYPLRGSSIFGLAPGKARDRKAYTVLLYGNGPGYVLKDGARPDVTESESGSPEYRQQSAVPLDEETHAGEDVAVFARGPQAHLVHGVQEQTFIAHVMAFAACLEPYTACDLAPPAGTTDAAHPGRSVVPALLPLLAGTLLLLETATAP

Hexokinase = target: T7, Hexokinase (Trypanosoma brucei, UniProt Q38C41); experiment: Confirmation assay for inhibitors of Trypanosoma brucei hexokinase 1-Analogue-first series. [Related pubchem assays (depositor defined):AID1430, AID1632, AID2516, AID2560, AID2579, AID2600, AID449725, AID492951]; format: functional
T7 sequence (Q38C41 whole entry): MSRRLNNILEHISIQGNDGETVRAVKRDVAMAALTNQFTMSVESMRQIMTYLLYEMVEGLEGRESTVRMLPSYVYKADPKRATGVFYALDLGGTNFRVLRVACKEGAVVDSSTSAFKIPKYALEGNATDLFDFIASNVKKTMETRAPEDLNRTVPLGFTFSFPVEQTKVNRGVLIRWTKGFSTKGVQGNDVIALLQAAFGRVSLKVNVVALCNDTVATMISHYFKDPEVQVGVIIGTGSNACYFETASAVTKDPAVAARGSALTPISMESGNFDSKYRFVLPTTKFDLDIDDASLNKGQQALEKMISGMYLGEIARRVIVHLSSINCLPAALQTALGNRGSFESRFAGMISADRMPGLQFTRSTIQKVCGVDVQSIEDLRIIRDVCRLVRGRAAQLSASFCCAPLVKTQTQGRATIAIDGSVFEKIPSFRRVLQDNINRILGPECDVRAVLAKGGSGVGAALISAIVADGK

[14] = target: T8, Alkaline phosphatase, tissue-nonspecific isozyme (Homo sapiens, UniProt P05186); experiment: human TNAP enzyme inhibitors, SAR follow-up, biochemical, luminescent, dose response (AID 1056)
T8 sequence (P05186 whole entry): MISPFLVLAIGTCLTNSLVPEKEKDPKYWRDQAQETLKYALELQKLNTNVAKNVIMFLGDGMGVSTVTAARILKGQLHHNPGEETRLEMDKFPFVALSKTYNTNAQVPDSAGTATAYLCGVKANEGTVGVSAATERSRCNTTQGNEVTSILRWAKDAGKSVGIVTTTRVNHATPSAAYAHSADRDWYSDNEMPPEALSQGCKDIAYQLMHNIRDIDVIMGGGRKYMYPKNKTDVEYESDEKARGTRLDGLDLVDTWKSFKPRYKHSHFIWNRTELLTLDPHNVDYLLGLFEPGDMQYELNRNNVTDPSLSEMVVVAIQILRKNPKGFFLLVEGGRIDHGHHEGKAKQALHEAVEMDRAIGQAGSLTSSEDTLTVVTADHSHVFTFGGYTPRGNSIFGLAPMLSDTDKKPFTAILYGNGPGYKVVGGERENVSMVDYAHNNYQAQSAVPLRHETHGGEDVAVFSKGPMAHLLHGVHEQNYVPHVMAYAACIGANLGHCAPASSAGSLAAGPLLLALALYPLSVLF

Cc1ccc(N2CC(C(=O)NC3=NCCS3)CC2=O)cc1 (configuration not stated)
EC50 (T-cell): 22.1 µM (active)

Cc1cc(Cl)c2oc(C(=O)N3CCN(C(=O)c4ccco4)CC3)c(C)c2c1
EC50 (Streptococcus): 24.7 µM (active) | EC50 [1]: 3.4 µM (active) | EC50 (Streptokinase A): > 150 µM (not active) | AC50 (CAAX prenyl protease 2): 21.7 µM (active)

Oc1nc(/C=C/c2ccccc2C(F)(F)F)cc(C(F)(F)F)n1
IC50 (Tumor necrosis factor): 11.3 µM (active) | IC50 (HEK293 [2]): 13.3 µM (inactive) | EC50 (HEK293 [3]): 9.79 µM (active) | IC50 (HEK293 [4]): > 20 µM (inactive) | IC50 (HEK293 [5]): > 20 µM (inactive) | IC50 (HEK293 [6]): > 20 µM (inactive) | IC50 [7]: 3.82 µM (active)

O=C(O)c1ccc2c3c(cccc13)C(=O)N(c1ccccc1)C2=O
IC50 [8]: 37.5 µM (active) | IC50 [9]: 14 µM (active) | AC50 (Caspase-6): 11.9 µM (active)

CCOc1ccc(N(Cc2ccc(OC)cc2)C(=O)c2ccco2)cc1
AC50 (CAAX prenyl protease 2): 4.23 µM (active)

Cc1nc2nc(C)n(-c3ccccc3)c2s1
IC50 [8]: 6.72 µM (active) | IC50 [9]: 17.7 µM (active)

CCCCCC(=O)N(O)C1CC(=O)N(c2ccccc2)C1=O (configuration not stated)
IC50 [10]: 59.7 µM (active) | AC50 [11]: 4.5 µM (active)

CCN(CC)CCn1c2ccccc2c2nnc(S)nc21
IC50 [10]: 19.5 µM (active) | AC50 [12]: 5.41 µM (active)

COCCCN1CCc2nc(S)nc(O)c2C1
EC50 (T-cell): 0.594 µM (active)

CCCCN=C(S)NNC(=O)c1nn(C)c(C)c1Cl
IC50 [13]: > 100 µM (inactive)

COc1ccc(C(=O)N(C)c2cc(Cl)ccc2C(=O)O)cc1
IC50 (Hexokinase): > 25 µM (inactive)

CCCCN1C(=O)/C(=N\Nc2ccccc2C(F)(F)F)c2ccccc21
IC50 [14]: 73.8 µM (active) | IC50 [13]: 49.7 µM (active)

CCN1C(NCCCOC(C)C)=N[C@@H](c2ccccc2)[C@H](C(=O)OC)[C@H]1C
IC50 [8]: 7.19 µM (active) | IC50 [9]: 3.99 µM (active)

O=C1Nc2ccccc2/C1=C\NCCc1ccc(O)c(O)c1
IC50 [14]: 2.54 µM (active) | IC50 [13]: 0.374 µM (active)

COc1ccc(C(=O)Nc2cnccc2C(=O)O)cc1
IC50 (Hexokinase): > 25 µM (inactive)
